Experimental data taken from article PMC5355811 (Nature Communications, 2017).
Read-outs that look alike come from different tables or passages of the source.

What was measured:
[1] = tested on: PC9 T790M cells (T790M/del19); experiment: CellTiter-Glo cell viability assay, PC9 T790M; type: cell-based; settings: 72 h, read-out: IC50, PC9 T790M
Description: (§1) Three-day cell viability assays were carried out by plating 2,000, 1,500 and 2,000 cells per well of Ba/F3, PC9 or MGH121, respectively, into black transparent-bottom 96-well plates. On the same day for Ba/F3 cells and the following day for PC9 and MGH121 cells, the cells were treated with each TKI across a 10-dose range from 0.3 nmol l^−1 to 10 μmol l^−1. After 72 h of drug treatment, cell viability was measured using the CellTiter-Glo assay (Promega).

[2] = tested on: PC9 triple-mutant cells (C797S/T790M/del19); experiment: CellTiter-Glo cell viability assay, PC9 triple mutant; type: cell-based; settings: 72 h, read-out: IC50, PC9 triple
Description: as §1

[3] = tested on: Ba/F3 cells expressing EGFR-T790M/del19; experiment: CellTiter-Glo cell viability assay, Ba/F3 EGFR-T790M/del19; type: cell-based; settings: Mus musculus, BaF3, 72 h
Description: as §1

[4] = tested on: Ba/F3 cells expressing EGFR-del19; experiment: CellTiter-Glo cell viability assay, Ba/F3 EGFR-del19; type: cell-based; settings: Mus musculus
Description: as §1

[5] = tested on: Ba/F3 cells expressing EGFR-L858R; experiment: CellTiter-Glo cell viability assay, Ba/F3 EGFR-L858R; type: cell-based; settings: Mus musculus, BaF3, 72 h
Description: as §1

[6] = tested on: Ba/F3 cells expressing EGFR-C797S/T790M/del19; experiment: CellTiter-Glo cell viability assay, Ba/F3 EGFR-C797S/T790M/del19; type: cell-based; settings: for IC50: Mus musculus, BaF3, 72 h, 72 h
Description: as §1

[7] = tested on: PC9 parent cells (del19); experiment: CellTiter-Glo cell viability assay, PC9 parent; type: cell-based; settings: 72 h, read-out: IC50, PC9 parent
Description: as §1

[8] = tested on: Ba/F3 cells expressing EGFR-C797S/T790M/L858R; experiment: CellTiter-Glo cell viability assay, Ba/F3 EGFR-C797S/T790M/L858R; type: cell-based; settings: Mus musculus, BaF3, 72 h
Description: as §1

[9] = tested on: Ba/F3 cells expressing EGFR-T790M/L858R; experiment: CellTiter-Glo cell viability assay, Ba/F3 EGFR-T790M/L858R; type: cell-based; settings: Mus musculus, BaF3, 72 h
Description: as §1

[10] = tested on: Ba/F3 cells of EGFR-C797S/T790M/del19; experiment: Drug sensitivity screening at 100 nM, Ba/F3 EGFR-C797S/T790M/del19; type: cell-based; settings: Mus musculus; for viability at 0.1 µM: BaF3, 72 h, 100 nM inhibitor, 72 h, DMSO = 100, mean of three independent experiments (Fig. 1a data)
Description: (§2) After the incubation, cell viability was measured using CellTiter-Glo assay. The relative cell viability was calculated as a ratio of each value to that of the DMSO control.

[11] = tested on: Ba/F3 cells of EGFR-del19; experiment: Drug sensitivity screening at 100 nM, Ba/F3 EGFR-del19; type: cell-based; settings: for Relative cell viability (% of DMSO control) in del19 Ba/F3 cells: 100 nM; for viability at 0.1 µM: Mus musculus, BaF3, 72 h, read-out: Relative cell viability (ratio to DMSO control), del19
Description: as §2

[12] = tested on: Ba/F3 cells of EGFR-T790M/del19; experiment: Drug sensitivity screening at 100 nM, Ba/F3 EGFR-T790M/del19; type: cell-based; settings: for Relative cell viability (% of DMSO control): 100 nM; for viability at 0.1 µM: Mus musculus, BaF3, 72 h, read-out: Relative cell viability (ratio to DMSO control), del19/T790M
Description: as §2

[13] = tested on: EGFR phosphorylation in PC9 triple-mutant cells; experiment: Western blotting of EGFR signalling, PC9 triple mutant; type: cell-based
Description: (§3) Tumour tissues or cells grown under the specified conditions were washed with cold PBS before addition of the SDS lysis buffer (100 mM Tris, 1% SDS, 10% glycerol). Lysates were transferred to microtubes, boiled for 5 min at 100 °C and then vortexed. Protein quantification was performed using the BCA Protein Assay Reagent (Pierce) according to the manufacturer's protocol. Western blot analyses were conducted after separation by SDS-PAGE and transferred to polyvinylidene difluoride membranes.

[14] = tested on: confirmed EGFR T790M; parameters: method as in PMID 25923549; settings: 127 patients with confirmed EGFR T790M, phase 1/2 trial; cited from earlier work
[15] = tested on: phosphorylation of EGFR in Ba/F3 cells expressing EGFR-C797S/T790M/del19; experiment: Western blotting of EGFR signalling, Ba/F3 triple-del19; type: cell-based; settings: 6 h
Description: as §3

[16] = tested on: PC9-T790M (T790M/del19) xenograft; experiment: PC9-T790M xenograft; type: in vivo, Balb-c nu/nu mice; settings: osimertinib 50 mg kg^−1, brigatinib 75 mg kg^−1
Description: (§4) Tumour growth was monitored twice weekly by bilateral caliper measurement, and tumour volume was calculated as 0.5 × length × width × width (mm^3). […] The mice whose implanted tumour size was ranked in the top 5% and bottom 5% were excluded from randomization to minimize the variation of tumour sizes. The mice were treated once daily by oral gavage for the indicated period. Relative tumour volume was calculated by dividing by the tumour volume on day 0. The body weights of the mice were measured twice weekly. Implanted tumours were resected from the mice on day 15 of drug treatment and were fixed with formalin. The mice were euthanized when the tumour size exceeded 700 mm^3 within several days. The investigators performing tumour measurements were not blinded to treatment groups. The sample size (minimum n=6 per treatment group) was selected to ensure satisfactory inter-animal reproducibility. The Mann–Whitney U test was used for the statistical analysis of the mice experiments.

[17] = tested on: PC9-triple mutant (C797S/T790M/del19) xenograft; settings: osimertinib 50 mg kg^−1, brigatinib 75 mg kg^−1 once daily oral; cetuximab 1 mg per mouse three times a week; panitumumab 0.5 mg per mouse two times a week
Description: as §4

[18] = tested on: MGH121 parental cells (T790M/del19); experiment: cells; type: cell-based; settings: Homo sapiens, MGH121; Table 1e; 72 h; read-out: IC50, MGH121-pt
Description: as §1

[19] = tested on: MGH121-res2 cells (C797S/T790M/del19); experiment: cells; type: cell-based; settings: Homo sapiens, MGH121; Table 1e; 72 h; read-out: IC50, MGH121-res2
Description: as §1

[20] = Fig. 3c, read-out: IC50, Ba/F3 T790M/del19
[21] = BaF3, Fig. 3c, 72 h, read-out: IC50, Ba/F3 Del19
[22] = Supplementary Fig. 8e, read-out: IC50, Ba/F3 L858R
[23] = Supplementary Fig. 8e, read-out: IC50, Ba/F3 T790M/L858R
[24] = 100 nM inhibitor, 72 h, DMSO = 100, mean of three independent experiments (Fig. 1a data)

Row | Compound | IC50 [3, 20] [nM] | IC50 [4, 21] [nM] | IC50 [5, 22] [nM] | IC50 ([6]; Fig. 3b,c) [nM] | IC50 ([8]; Supplementary Fig. 8e) [nM] | IC50 [9, 23] [nM] | viability at 0.1 µM [10] [%] | Relative cell viability (% of DMSO control) in del19 Ba/F3 cells ([11]; 72 h, DMSO = 100, experiment 1) | Relative cell viability (% of DMSO control) in del19 Ba/F3 cells ([11]; 72 h, DMSO = 100, experiment 2) | Relative cell viability (% of DMSO control) in del19 Ba/F3 cells ([11]; 72 h, DMSO = 100, experiment 3) | viability at 0.1 µM [11, 24] [%] | Relative cell viability (% of DMSO control) ([12]; 72 h, DMSO = 100, experiment 1) | Relative cell viability (% of DMSO control) ([12]; 72 h, DMSO = 100, experiment 2) | Relative cell viability (% of DMSO control) ([12]; 72 h, DMSO = 100, experiment 3) | viability at 0.1 µM [12, 24] [%] | also measured
1 | COc1cc(N2CCC(N(C)C)CC2)ccc1Nc1ncc(Cl)c(Nc2ccccc2P(C)(C)=O)n1 [AP26113-analog] | 139 | 36.9 | 92.1 | < 100 | 69.2 | 36 |  |  |  |  |  |  |  |  |  | IC50 ([1]; Table 1d, ALK–TKIs): 89.3 nM; IC50 ([2]; Table 1d, ALK–TKIs): 195 nM; change of IC50 by combination with cetuximab, triple-del19 Ba/F3 cells ([6]; with or without cetuximab 10 μg ml^−1, 72 h): approximately three-fold decrease of IC50; IC50 ([7]; Table 1d, ALK–TKIs): 46.2 nM
2 | Cc1cc(Nc2ncc(Cl)c(Nc3ccccc3S(=O)(=O)C(C)C)n2)c(OC(C)C)cc1C1CCNCC1 [Ceritinib, ceritinib] |  | 524 | 1160 | 780 |  | 685 | 135 |  |  |  | 96.5 |  |  |  |  | 
3 | Cc1cc(C(=O)Nc2nc3cccc(Cl)c3n2[C@@H]2CCCCN(C(=O)/C=C/CN(C)C)C2)ccn1 [EGF-816] |  |  |  |  |  |  |  |  |  |  |  |  |  |  |  | IC50 ([3]; Table 1a, read-out: IC50, Ba/F3-EGFR-T790M/del19): 18.5 nM; IC50 ([4]; BaF3, Table 1a, 72 h, read-out: IC50, Ba/F3-EGFR-Del19): 2.9 nM; IC50 ([5]; Table 1b, read-out: IC50, Ba/F3-EGFR-L858R): 7.7 nM; IC50 ([6]; Table 1a, read-out: IC50, Ba/F3-EGFR-C797S/T790M/del19): 1410 nM; IC50 ([8]; Table 1b, read-out: IC50, Ba/F3-EGFR-C797S/T790M/L858R): 2280 nM; IC50 ([9]; Table 1b, read-out: IC50, Ba/F3-EGFR-T790M/L858R): 15.5 nM
4 | C=CC(=O)Nc1cc(Nc2nccc(-c3cn(C)c4ccccc34)n2)c(OC)cc1N(C)CCN(C)C [Osimertinib, osimertinib] |  |  |  |  |  |  |  |  |  |  |  |  |  |  |  | median progression-free survival [14]: 9.6 months; response rate [14]: 61%; IC50 ([1]; Table 1c, EGFR–TKIs): 11.3 nM; IC50 ([2]; Table 1c, EGFR–TKIs): 3460 nM; viability at 0.1 µM [11]: 1.58%; phosphorylation of EGFR and downstream signalling, Ba/F3 triple-del19 [15]: lack of inhibition of EGFR phosphorylation; viability at 0.1 µM [12]: 7.61%; tumour growth, T790M/del19-expressing PC9 xenograft [16]: successfully suppressed the growth; IC50 ([7]; Table 1c, EGFR–TKIs): 7.46 nM; tumour growth, PC9 triple-mutant xenograft [17]: without any superiority to control group; IC50 [18]: 2.58 nM; IC50 [19]: 7.16 µM; EGFR phosphorylation and downstream signalling, PC9 triple-mutant cells [13]: No reduction of the signal pathway
5 | Cc1ccc(C(=O)Nc2ccc(CN3CCN(C)CC3)c(C(F)(F)F)c2)cc1C#Cc1cnc2cccnn12 [Ponatinib, ponatinib] |  |  |  |  |  |  |  |  |  |  |  |  |  |  |  | inhibition at 0.1 µM ([10]; BaF3, read-out: growth inhibition against EGFR-triple-del19): ~50%; IC50 ([4]; BaF3, 72 h, read-out: IC50, Ba/F3 del19): 126 nM; viability at 0.1 µM [11]: 40.6%; phosphorylation of EGFR and downstream signalling, Ba/F3 triple-del19 [15]: no inhibitory activity; viability at 0.1 µM [12]: 53.5%
6 | CCCS(=O)(=O)Nc1ccc(F)c(C(=O)c2c[nH]c3ncc(-c4ccc(Cl)cc4)cc23)c1F [Vemurafenib, vemurafenib] |  |  |  |  |  |  | 96.8 | 102.039 | 116.573 | 106.065 | 108 | 92.0888 | 107.966 | 104.772 | 102 | 
7 | COc1cc2nccc(Oc3ccc(NC(=O)C4(C(=O)Nc5ccc(F)cc5)CC4)cc3)c2cc1OC [XL184] |  |  |  |  |  |  | 137 | 97.6803 | 120.752 | 111.655 | 110 | 91.4569 | 111.038 | 110.02 | 104 | 
8 | CC(=O)O[C@H]1C(=O)[C@@]2(C)[C@H]([C@H](OC(=O)c3ccccc3)[C@]3(O)C[C@H](OC(=O)[C@H](O)[C@@H](NC(=O)c4ccccc4)c4ccccc4)C(C)=C1C3(C)C)[C@]1(OC(C)=O)CO[C@@H]1C[C@@H]2O [paclitaxel] |  |  |  |  |  |  | 95.1 | 51.8383 | 52.2569 | 51.6533 | 51.9 | 72.6289 | 87.6485 | 88.6746 | 83 | 

More lines, main results first:

Row | IC50 [3, 20] [nM] | IC50 [4, 21] [nM] | IC50 [5, 22] [nM] | IC50 ([6]; Fig. 3b,c) [nM] | IC50 ([8]; Supplementary Fig. 8e) [nM] | IC50 [9, 23] [nM] | Compound | viability at 0.1 µM [10] [%] | Relative cell viability (% of DMSO control) in del19 Ba/F3 cells ([11]; 72 h, DMSO = 100, experiment 1) | Relative cell viability (% of DMSO control) in del19 Ba/F3 cells ([11]; 72 h, DMSO = 100, experiment 2) | Relative cell viability (% of DMSO control) in del19 Ba/F3 cells ([11]; 72 h, DMSO = 100, experiment 3) | viability at 0.1 µM [11, 24] [%] | Relative cell viability (% of DMSO control) ([12]; 72 h, DMSO = 100, experiment 1) | Relative cell viability (% of DMSO control) ([12]; 72 h, DMSO = 100, experiment 2) | Relative cell viability (% of DMSO control) ([12]; 72 h, DMSO = 100, experiment 3) | viability at 0.1 µM [12, 24] [%] | also measured
9 | 2160 | 450 | 948 | 1510 | 2150 | 1690 | COc1cc(N2CCC(N3CCN(C)CC3)CC2)ccc1Nc1ncnc(Nc2ccccc2S(=O)(=O)C(C)C)n1 [ASP3026] | 126 | 92.7195 | 100.941 | 101.38 | 98.3 | 93.2109 | 112.991 | 110.516 | 106 | 
10 | 175 | 90 | 287 | 132 | 168 | 184 | COc1cc(N2CCC(N)CC2)ccc1Nc1ncc(Cl)c(-c2c[nH]c3ccccc23)n1 [AZD3463] | 89.3 | 35.8012 | 31.981 | 37.0414 | 34.9 | 78.5876 | 91.5008 | 89.0461 | 86.4 | IC50 ([1]; Table 1d, ALK–TKIs): 378 nM; IC50 ([2]; Table 1d, ALK–TKIs): 622 nM; IC50 ([7]; Table 1d, ALK–TKIs): 253 nM; EGFR phosphorylation and downstream signalling, PC9 triple-mutant cells [13]: mild activity
